Assay results as given in patent publication US20100004159A1, “SUBSTITUTED IMIDAZOLONE DERIVATIVES, PREPARATIONS AND USES” (GENFIT, priority 2006, published 2010).

| melting point | Compound |
| --- | --- |
| 128 to 130 °C | CCCCC1=NC2(CCCC2)C(=O)N1Cc1ccc(-c2cccc(OCC#N)c2)cc1 [Compound 23, 2-butyl-1-[(3′-(cyanomethoxy)biphenyl-4-yl)methyl]-4-spirocyclopentyl-1H-imidazol-5(4H)-one] |
| 170 °C | CCCCC1=NC2(CCCC2)C(=O)N1Cc1cccc(-c2ccc(OC(C)(C)C(=O)O)cc2)c1 [Compound 77, 2-butyl-1-[(4′-((1-carboxy-1,1-dimethylmethyl)oxy)biphenyl-3-yl)methyl]-4-spirocyclopentyl-1H-imidazol-5(4H)-one] |
| 76 °C | CCCCC1=NC2(CCCC2)C(=O)N1Cc1ccc(-c2cc(OC(C)C(=O)O)ccc2CCC)cc1 (stereo not shown) [Compound 83, 2-butyl-1-[(3′-((1-carboxy-1-methylmethyl)oxy)-6′-propyl-biphenyl-4-yl)methyl]-4-spirocyclopentyl-1H-imidazol-5(4H)-one] |
| 102 to 105 °C | CCCCC1=NC2(CCCCC2)C(=O)N1Cc1ccc(-c2cc(OCC(=O)O)ccc2F)cc1 [Compound 56, 2-butyl-1-[(3′-((1-carbonylmethyl)oxy)-6′-fluoro-biphenyl-4-yl)methyl]-4-spirocyclohexyl-1H-imidazol-5(4H)-one] |
| 74 °C | CCCCC1=NC2(CCCC2)C(=O)N1Cc1ccc(-c2ccc(CCC)c(OC(C)(C)C(=O)O)c2)cc1 [Compound 98, 2-butyl-1-[(3′-((1-carboxy-1,1-dimethylmethyl)oxy)-4′-propyl-biphenyl-4-yl)methyl]-4-spirocyclopentyl-1H-imidazol-5(4H)-one] |
| 134 to 190 °C | CCCC1=NC2(CCCC2)C(=O)N1Cc1ccc(-c2cccc(OC(C)(C)C(=O)O)c2)cc1 [Compound 16, 1-[(3′-((1-carboxy-1,1-dimethylmethyl)oxy)biphenyl-4-yl)methyl]-2-propyl-4-spirocyclopentyl-1H-imidazol-5(4H)-one] |
| 76 °C | CCCCC1=NC2(CCCC2)C(=O)N1Cc1ccc(-c2cccc(OC(CC)c3nnn[nH]3)c2)cc1 (stereo not shown) [Compound 99, 2-butyl-1-[(3′-((1-(tetrazol-5-yl)-1-ethylmethyl)oxy)-biophenyl-4-yl)methyl]-4-spirocyclopentyl-1H-imidazol-5(4H)-one] |
| 184 °C | CCCCC1=NC2(CCCCC2)C(=O)N1Cc1ccc(-c2cccc(OC3(C(=O)O)CCC3)c2)cc1 [Compound 67, 2-butyl-1-[(3′-((1-carboxy-1-spirocyclobutylmethyl)oxy)biphenyl-4-yl)methyl]-4-spirocyclohexyl-1H-imidazol-5(4H)-one] |
| 170 °C | CCCCC1=NC2(CCCCC2)C(=O)N1Cc1ccc(-c2cccc(OC(CC)C(=O)O)c2)cc1 (stereo not shown) [Compound 54, 2-butyl-1-[(3′-((1-carboxy-1-ethylmethyl)oxy)biphenyl-4-yl)methyl]-4-spirocyclohexyl-1H-imidazol-5(4H)-one] |
| 77 °C | CCCCC1=NC2(CCCCC2)C(=O)N1Cc1ccc(-c2cccc(OC(CC)C(=O)O)c2)c(C)c1 (stereo not shown) [Compound 71, 2-butyl-1-[(3′-((1-carboxy-1-ethylmethyl)oxy)-3-methyl-biphenyl-4-yl)methyl]-4-spirocyclohexyl-1H-imidazol-5(4H)one] |

More lines, now with the values behind:

| Compound | melting point |
| --- | --- |
| CCCCC1=NC2(CCCC2)C(=O)N1Cc1ccc(-c2ccc(CC(C)C)c(OC(C)(C)C(=O)O)c2)cc1 [Compound 81, 2-butyl-1-[(3′-((1-carboxy-1,1-dimethylmethyl)oxy)-4′-isobutyl-biphenyl-4-yl)methyl]-4-spirocyclopentyl-1H-imidazol-5(4H)-one] | 78 °C |
| CCCCC1=NC2(CCCC2)C(=O)N1Cc1ccc(-c2cccc(OC(C)(C)C(=O)O)c2F)cc1 [Compound 78, 2-butyl-1-[(3′-((1-carboxy-1,1-dimethylmethyl)oxy)-2′-fluoro-biphenyl-4-yl)methyl]-4-spirocyclopentyl-1H-imidazol-5(4H)-one] | 162 °C |
| CCCCC1=NC2(CCCCC2)C(=O)N1Cc1ccc(-c2cc(OC(C)(C)C(=O)O)ccc2Br)cc1 [Compound 22, 1-[(6′-bromo-3′-((1-carboxy-1,1-dimethylmethyl)oxy)biphenyl-4-yl)methyl]-2-butyl-4-spirocyclohexyl-1H-imidazol-5(4H)-one] | 170 to 172 °C |
| CCCCC1=NC2(CCCC2)C(=O)N1Cc1ccc(-c2cc(OC(C)(C)C(=O)O)ccc2CC(C)C)cc1 [Compound 87, 2-butyl-1-[(3∝-((1-carboxy-1,1-dimethylmethyl)oxy)-6′-isobutyl-biphenyl-4-yl)methyl]-4-spirocyclopentyl-1H-imidazol-5(4H )-one] | < 50 °C |
| CCCCC1=NC2(CCCC2)C(=O)N1Cc1ccc(-c2cccc(OC(C)(C)C(=O)O)c2)cc1C [Compound 91] | 160 °C |
| CCCCC1=NC2(CCCC2)C(=O)N1Cc1ccc(C(=O)c2ccc(OC(C)(C)C(=O)O)cc2)cc1 [Compound 9, 2-butyl-1-[[4-[(4-((1-carboxyl-1,1-dimethylmethyl)oxy)phenyl)carbonyl]phenyl]methyl]-4-spirocyclopentyl-1H-imidazol-5(4H)-one] | 90 to 99 °C |
| CC1=NC2(CCCC2)C(=O)N1Cc1ccc(-c2cccc(OC(C)(C)C(=O)O)c2)cc1 [Compound 18, 1-[(3′-((1-carboxy-1,1-dimethylmethyl)oxy)biphenyl-4-yl)methyl]-2-methyl-4-spirocyclopentyl-1H-imidazol-5(4H)-one] | 81 to 88 °C |
| CCCCC1=NC2(CCCC2)C(=O)N1Cc1ccc(C(=O)c2ccccc2OC(C)(C)C(=O)O)cc1 [Compound 7, 2-butyl-1-[[4-[(2-((1-carboxyl-1,1-dimethylmethyl)oxy)phenyl)carbonyl]phenyl]methyl]-4-spirocyclopentyl-1H-imidazol-5(4H)-one] | 85 to 90 °C |
| CCCCC1=NC2(CCCCC2)C(=O)N1Cc1ccc(-c2cccc(OC(C)C(=O)O)c2)c(C)c1 (stereo not shown) [Compound 70, 2-butyl-1-[(3′-((1-carboxy-1-methylmethyl)oxy)-3-methyl-biphenyl-4-yl)methyl]-4-spirocyclohexyl-1H-imidazol-5(4H)one] | 81 °C |
| CCCCC1=NC2(CCCC2)C(=O)N1Cc1ccc(-c2cc(OC(C)(C)C(=O)O)ccc2C#N)cc1 [Compound 89, 2-butyl-1-[(3′-((1-carboxy-1.1-dimethylmethyl)oxy)-6′-cyano-biphenyl-4-yl)methyl]-4-spirocyclopentyl-1H-imidazol-5(4H)-one] | < 50 °C |
| CC(C)(Oc1cccc(-c2ccc(CN3C(=O)C4(CCCC4)N=C3Cc3ccccc3)cc2)c1)C(=O)O [Compound 28, 2-benzyl-1-[(3′-((1-carboxy-1,1-dimethylmethyl)oxy)biphenyl-4-yl)methyl]-4-spirocyclopentyl-1H-imidazol-5(4H)-one] | 149 to 153 °C |
| CC(C)(Oc1cccc(-c2ccc(CN3C(=O)C4(CCCC4)N=C3C3CC3)cc2)c1)C(=O)O [Compound 29, 1-[(3′-((1-carboxy-1,1-dimethylmethyl)oxy)biphenyl-4-yl)methyl]-2-cyclopropyl-4-spirocyclopentyl-1H-imidazol-5(4H)-one] | 175 to 177 °C |
| CCCCC1=NC(CC)(CC)C(=O)N1Cc1ccc(-c2cc(OC(C)(C)C(=O)O)ccc2F)cc1 [Compound 69] | 62 °C |
| CCCCC1=NC2(CCCC2)C(=O)N1Cc1cccc(-c2cccc(OC(C)(C)C(=O)O)c2)c1 [Compound 74, 2-butyl-1-[(3′-((1-carboxy-1,1-dimethylmethyl)oxy)biphenyl-3-yl)methyl]-4-spirocyclopentyl-1H-imidazol-5(4H)-one] | 70 °C |
| CCCCC1=NC2(CCCC2)C(=O)N1Cc1ccc(-c2cccc(OC(C)(C)C(=O)O)c2)c(OC)c1 [Compound 90] | 157 °C |
| CCCCC1=NC(CC)(CC)C(=O)N1Cc1ccc(-c2cccc(OC(C(=O)O)C(C)C)c2)cc1 (stereo not shown) [Compound 63, 2-butyl-1-[(3′-((1-carboxy-1-(1,1-dimethylmethyl)methyl)oxy)-biphenyl-4-yl)methyl]-4,4-diethyl-1H-imidazol-5(4H)-one] | 65 °C |
| CCCCC1=NC2(CCCC2)C(=O)N1Cc1ccc(Cc2ccc(OC(C)(C)C(=O)O)cc2)cc1 [Compound 31] | 147 to 149 °C |
| CCCCC1=NC2(CCCCC2)C(=O)N1Cc1ccc(-c2cc(OC(C)(C)C(=O)O)ccc2F)cc1 [Compound 60, 2-butyl-1-[(3′-((1-carboxy-1,1-dimethylmethyl)oxy)-6′-fluoro-biphenyl-4-yl)methyl]-4-spirocyclohexyl-1H-imidazol-5(4H)-one] | 72 °C |
| CCCCC1=NC(CC)(CC)C(=O)N1Cc1ccc(-c2cccc(OC(CC)C(=O)O)c2)cc1 (stereo not shown) [Compound 64, 2-butyl-1-[(3′-((1-carboxy-1-ethylmethyl)oxy)biphenyl-4-yl)methyl]-4,4-diethyl-1H-imidazol-5(4H)one] | 184 °C |
| CCCCC1=NC2(CCCCC2)C(=O)N1Cc1ccc(C(=O)c2cccc(OC(C)(C)C(=O)O)c2)cc1 [Compound 11, 2-butyl-1-[[4-[(3-((1-carboxyl-1,1-dimethylmethyl)oxy)phenyl)carbonyl]phenyl]methyl]-4-spirocyclohexyl-1H-imidazol-5(4H)-one] | 68 to 75 °C |
| CCCCC1=NC2(CCCC2)C(=O)N1Cc1ccc(-c2ccccc2OC(C)(C)C(=O)O)cc1 [Compound 6, 2-butyl-1-[(2′-((1-carboxy-1,1-dimethylmethyl)oxy)biphenyl-4-yl)methyl]-4-spirocyclopentyl-1H-imidazol-5(4H)-one] | 74 to 80 °C |
| CCCCC1=NC2(CCCC2)C(=O)N1CCc1ccc(OC(C)(C)C(=O)O)cc1 [Compound 3, 2-butyl-1-[2-(4-((1-carboxy-1,1-dimethylmethyl)oxy)phenyl)ethyl]-4-spirocyclopentyl-1H-imidazol-5(4H)-one] | 50 to 53 °C |
| CCCCC1=NC(c2ccccc2)C(=O)N1Cc1ccc(C(=O)c2ccc(OC(C)(C)C(=O)O)cc2)cc1 (stereo not shown) [Compound 20, 2-butyl-1-[[4-[(4-((1-carboxy-1,1-dimethylmethyl)oxy)phenyl)carbonyl]phenyl]methyl]-4-phenyl-1H-imidazol-5(4H)-one] | 215 to 217 °C |
| CCCCC1=NC(CC)(CC)C(=O)N1Cc1ccc(-c2cccc(OC(C)(C)C(=O)O)c2)cc1 [Compound 65, 2-butyl-1-[(3′-((1-carboxy-1,1-dimethylmethyl)oxy)biphenyl-4-yl)methyl]-4,4-diethyl-1H-imidazol-5(4H)one] | 144 °C |
